Measurements reported in paper PMC6934184, “Selective DNA-PKcs inhibition extends the therapeutic index of localized radiotherapy and chemotherapy” (The Journal of Clinical Investigation, 2019).

Assays:
[1] = test system: Calu-6 subcutaneous xenografts; experiment: subcutaneous Calu-6 xenograft with fractionated radiation (4 × 5 Gy); assay type: in vivo, mouse; conditions: 30 mg/kg oral 30 min before and 5 h after each of 4 × 5 Gy; CD-1 nude mice
Protocol: To examine the effect of NU5455 treatment on efficacy versus a late radiation toxicity, a total dose of 20 Gy of thoracic radiation was administered either to CD-1 nude mice bearing subcutaneous Calu-6 tumors or to non–tumor-bearing C57BL/6 mice, as four 5-Gy fractions given on days 1, 4, 7, and 10. This fractionated regimen was adapted from an existing method ([30]), resulting in focal areas of lung fibrosis at 24 weeks following treatment, but at a level that would enable any exacerbation of fibrosis to be readily detected.
Figure 5 NU5455 augments the effect of fractionated radiotherapy in Calu-6 tumors without enhancing late radiation damage to the lung. (A) Mean tumor volume of mice bearing Calu-6 subcutaneous xenografts treated with localized radiation (4 × 5 Gy on days 1, 4, 7, and 10) with either NU5455 (30 mg/kg orally) or vehicle 30 minutes before and 5 hours after each dose of IR (3–5 mice per group). The time taken to reach 2 times the tumor volume at the start of treatment (RTV2) was also assessed. […] Samples were scored using the modified Ashcroft system on a scale of 0 to 8 (5–9 mice per group). […] Statistical significance was assessed using a log-rank test (A) and 1-way ANOVA (B). *P < 0.05, **P < 0.01, ****P < 0.0001.

[2] = test system: NHEJ-mediated DSB repair in HEK293T cells; experiment: NHEJ plasmid repair assay; assay type: cell-based, Human; conditions: 1 μM; 24 hours; AfeI or ScaI linearized plasmid
Protocol: The ability of NU5455 to impair the nonhomologous end joining (NHEJ) ability of cells was assessed using a modified version of a DNA repair assay developed by Nagel et al. ([52]), which measures the repair of a plasmid encoding blue fluorescent protein (BFP) and GFP linearized by either an ScaI or an AfeI restriction digestion. Full experimental details are given in Supplemental Methods.
Membranes were then washed in TBST and incubated with HRP-conjugated goat anti-mouse or anti-rabbit antibodies (P0447 and P0448 respectively, Dako) in 5% (w/v) milk/TBST at room temperature for 1-2 hours. Conjugates were detected using Clarity Western ECL Substrate (BioRad) and chemiluminescence imaged using the Fuji LAS-3000 Luminescent Image Analyzer System (Fujifilm).
Densitometry analysis was performed using AIDA Image Analyzer software (Raytest). The intensity of all bands was determined following a background subtraction, and the level of pDNA-PKcs stimulation determined by subtracting basal unstimulated pDNA-PKcs Ser2056 levels. pDNA-PKcs Ser2056 band intensity was calculated relative to total DNA-PKcs band intensity, and is given as percentage expression relative to irradiated, DMSO-treated cells. […]
violet laser with 440/50 emission filter to detect blue fluorescence using the VL1 channel. […]
Data were analyzed by FCS Express 6 Flow Research Edition (De Novo Software). […]

CN(C(=O)CN1CCOCC1)c1ccc2sc3c(-c4cccc5c(=O)cc(N6CC7CCC(C6)O7)oc45)cccc3c2c1 [NU5455]
time taken for tumors to double in volume (RTV2) [1]: increase the time taken | repair of DNA-DSBs (NHEJ plasmid repair) [2]: inhibit the repair of DNA-DSBs
